For one test, the target named is CDK12 wt/CycK (Homo sapiens (Human), UniProt Q9NYV4). The test is described as follows: Radiometric protein kinase assay (33PanQinase Activity Assay), Assay Condition A (thiol containing conditions).
Sequence of CDK12 wt/CycK (Q9NYV4 whole entry): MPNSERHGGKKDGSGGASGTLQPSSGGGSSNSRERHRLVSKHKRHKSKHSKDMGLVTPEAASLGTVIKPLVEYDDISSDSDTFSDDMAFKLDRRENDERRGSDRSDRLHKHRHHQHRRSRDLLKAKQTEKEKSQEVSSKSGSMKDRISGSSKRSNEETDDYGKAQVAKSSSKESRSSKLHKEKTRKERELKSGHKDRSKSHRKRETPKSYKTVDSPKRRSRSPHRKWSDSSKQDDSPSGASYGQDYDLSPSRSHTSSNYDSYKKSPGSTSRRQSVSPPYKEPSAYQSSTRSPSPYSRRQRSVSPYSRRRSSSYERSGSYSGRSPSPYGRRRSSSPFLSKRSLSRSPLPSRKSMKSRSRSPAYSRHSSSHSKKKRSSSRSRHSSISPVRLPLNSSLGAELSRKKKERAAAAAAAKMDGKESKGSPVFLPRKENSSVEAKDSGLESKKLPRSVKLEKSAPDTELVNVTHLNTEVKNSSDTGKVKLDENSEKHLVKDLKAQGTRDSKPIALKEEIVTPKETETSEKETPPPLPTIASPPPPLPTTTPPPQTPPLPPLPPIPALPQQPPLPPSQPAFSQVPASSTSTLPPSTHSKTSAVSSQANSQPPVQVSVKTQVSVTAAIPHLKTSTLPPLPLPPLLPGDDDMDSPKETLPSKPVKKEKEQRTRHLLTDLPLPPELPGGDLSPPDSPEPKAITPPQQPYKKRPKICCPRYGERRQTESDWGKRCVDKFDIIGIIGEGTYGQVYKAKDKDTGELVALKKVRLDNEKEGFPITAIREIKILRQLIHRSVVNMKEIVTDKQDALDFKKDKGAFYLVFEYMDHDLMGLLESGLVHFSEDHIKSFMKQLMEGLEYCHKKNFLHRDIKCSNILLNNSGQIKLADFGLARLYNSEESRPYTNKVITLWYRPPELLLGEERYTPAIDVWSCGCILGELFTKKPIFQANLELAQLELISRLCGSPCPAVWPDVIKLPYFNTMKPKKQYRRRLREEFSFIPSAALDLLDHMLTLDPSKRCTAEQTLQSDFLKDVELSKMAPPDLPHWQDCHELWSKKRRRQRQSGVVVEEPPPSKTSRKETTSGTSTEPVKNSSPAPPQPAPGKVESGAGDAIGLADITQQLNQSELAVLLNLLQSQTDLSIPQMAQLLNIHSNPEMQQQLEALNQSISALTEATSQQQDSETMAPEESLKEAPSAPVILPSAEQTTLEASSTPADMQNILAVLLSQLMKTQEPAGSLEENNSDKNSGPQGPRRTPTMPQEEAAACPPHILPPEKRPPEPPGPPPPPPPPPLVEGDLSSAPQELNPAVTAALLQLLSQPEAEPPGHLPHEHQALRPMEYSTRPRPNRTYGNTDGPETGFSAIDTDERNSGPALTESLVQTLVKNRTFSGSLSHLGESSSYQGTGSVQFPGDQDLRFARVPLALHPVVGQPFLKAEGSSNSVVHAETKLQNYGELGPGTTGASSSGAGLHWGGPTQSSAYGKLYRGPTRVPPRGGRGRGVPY
Sequence of CDK12 wt/CycK (O75909 whole entry partner): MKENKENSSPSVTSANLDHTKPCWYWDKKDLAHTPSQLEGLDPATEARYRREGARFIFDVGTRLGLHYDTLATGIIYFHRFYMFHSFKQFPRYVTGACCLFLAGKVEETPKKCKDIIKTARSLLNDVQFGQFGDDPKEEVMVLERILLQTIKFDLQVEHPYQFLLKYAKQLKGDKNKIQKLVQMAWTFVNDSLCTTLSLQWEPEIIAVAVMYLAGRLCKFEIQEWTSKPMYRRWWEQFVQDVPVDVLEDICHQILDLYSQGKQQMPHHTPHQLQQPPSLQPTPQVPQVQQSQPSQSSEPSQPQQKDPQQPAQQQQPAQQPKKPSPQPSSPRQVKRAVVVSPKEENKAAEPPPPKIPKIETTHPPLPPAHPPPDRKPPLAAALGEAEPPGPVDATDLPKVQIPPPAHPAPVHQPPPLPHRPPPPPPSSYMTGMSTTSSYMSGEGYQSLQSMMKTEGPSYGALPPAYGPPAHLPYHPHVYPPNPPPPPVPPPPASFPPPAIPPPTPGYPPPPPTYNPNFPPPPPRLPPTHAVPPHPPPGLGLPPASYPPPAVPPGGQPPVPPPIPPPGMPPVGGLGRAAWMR
Conditions: not given
Type of test: biochemical. The protocol: Example 1—Assay Condition A (Thiol Containing Conditions)
Objective: The IC50 profile of test compounds was determined using three protein kinases.
Test compounds: The compounds were provided as pre-weighed powders in vials. The compounds were dissolved to 1×10^−02M by adding DMSO. 100 μl of each of the resulting stock solutions were transferred into column 2 of four 96 well “master plates”.
Prior to testing, the 1×10^−02M stock solutions in column 2 of the master plates were subjected to a serial, semi-logarithmic dilution using 100% DMSO as a solvent. […] Column 1 and 7 were filled with 100% DMSO as controls. Subsequently, 2×10 μl from each well of the serial diluted copy plates were aliquoted with a 96 channel pipettor into two identical sets of “compound dilution plates”.
In the process, 90 μl H2O were added to each well of a set of compound dilution plates. To minimize potential precipitation, the H2O was added to each plate only a few minutes before the transfer of the compound solutions into the assay plates. Each plate was shaken thoroughly, resulting in a “compound dilution plate/10% DMSO”.
For the assays, 5 μl solution from each well of the compound dilution plates/10% DMSO were transferred into the assay plates. The final volume of the assay was 50 μl. All compounds were tested at 10 final assay concentrations in the range from 1×10^−04M to 3×10^−09M, in singlicate. The final DMSO concentration in the reaction cocktails was 1% in all cases.
Recombinant protein kinases: All protein kinases were expressed in Sf9 insect cells or in E. coli as recombinant GST-fusion proteins or His-tagged proteins, either as full-length or enzymatically active fragments. All kinases were produced from human cDNAs and purified by either GSH-affinity chromatography or immobilized metal. Affinity tags were removed from a number of kinases during purification. The purity of the protein kinases was examined by SDS-PAGE/Coomassie staining, the identity was checked by mass spectroscopy.
Protein kinase assay: A radiometric protein kinase assay (^33PanQinase® Activity Assay) was used for measuring the kinase activity of the three protein kinases. All kinase assays were performed in 96-well FlashPlates™ from PerkinElmer (Boston, Mass., USA) in a 50 μl reaction volume. The reaction cocktail was pipetted in four steps in the following order: • 20 μl of assay buffer (standard buffer) • 5 μl of ATP solution (in H2O) • 5 μl of test compound (in 10% DMSO) • 20 μl enzyme/substrate mix
The following amounts of enzyme and substrate were used per well:
The reaction cocktails were incubated at 30° C. for 60 minutes. The reaction was stopped with 50 μl of 2% (v/v) H3PO4, plates were aspirated and washed two times with 200 μl 0.9% (w/v) NaCl. Incorporation of ^33Pi was determined with a microplate scintillation counter (Microbeta, Wallac). All assays were performed with a BeckmanCoulter/SAGIAN™ Core System.
Evaluation of raw data: The median value of the counts in column 1 (n=8) of each assay plate was defined as “low control”. This value reflects unspecific binding of radioactivity to the plate in the absence of a protein kinase but in the presence of the substrate. The median value of the counts in column 7 of each assay plate (n=8) was taken as the “high control”, i.e. full activity in the absence of any inhibitor. The difference between high and low control was taken as 100% activity.
As part of the data evaluation the low control value from a particular plate was subtracted from the high control value as well as from all 80 “compound values” of the corresponding plate. The residual activity (in %) for each well of a particular plate was calculated by using the following formula: Res. Activity (%)=100×[(cpm of compound−low control)/(high control−low control)]
The residual activities for each concentration and the compound IC50 values were calculated using Quattro Workflow V3.1.1 (Quattro Research GmbH, Munich, Germany).
`C=CC(=O)Nc1ccc(C(=O)N2CC[C@@H](Nc3ccc(C#N)cn3)C2)cc1` [Example 147, (R)—N-(4-(3-((5-cyanopyridin-2-yl)amino)pyrrolidine-1-carbonyl)phenyl)acrylamide]: the 50% inhibitory concentration (IC50) lay within 100 to 1000 nM.

As to `C=CC(=O)Nc1ccc(C(=O)N2CC[C@@H](Nc3ncc(Cl)c(OCC)n3)C2)cc1OCCN(C)C` [Example 144, (R)—N-(4-(3-((5-chloro-4-ethoxypyrimidin-2-yl)amino)pyrrolidine-1-carbonyl)-2-(2-(dimethylamino)ethoxy)phenyl)acrylamide], the IC50 was less than 100 nM.

Molecule `C=CC(=O)Nc1ccc(C(=O)N2CC[C@@H](Nc3ncc(Br)cn3)C2)cc1OCCN1CCOCC1` [Example 156, (R)—N-(4-(3-((5-bromopyrimidin-2-yl)amino)pyrrolidine-1-carbonyl)-2-(2-morpholinoethoxy)phenyl)acrylamide] displayed an IC50 of 100 to 1000 nM.

The same test, now with this note: thiol containing conditions (1.2 mM DTT), ATP 0.3 μM; read-out: CDK12 IC50 Condition A.
`COc1nc(N[C@@H]2CCN(C(=O)c3ccc(NC(=O)/C=C/CN4CCOCC4)cc3)C2)ncc1Cl` [Example 168, (R,E)-N-(4-(3-((5-chloro-4-methoxypyrimidin-2-yl)amino)pyrrolidine-1-carbonyl)phenyl)-4-morpholinobut-2-enamide]: the half-inhibitory concentration (IC50) fell in the range of 100 to 1000 nM.

`COc1nc(N[C@@H]2CCN(C(=O)c3ccc(NC(=O)/C=C/CN4CCC[C@H](F)C4)cc3)C2)ncc1Cl` [Example 177, (E)-N-(4-((R)-3-((5-chloro-4-methoxypyrimidin-2-yl)amino)pyrrolidine-1-carbonyl)phenyl)-4-((S)-3-fluoropiperidin-1-yl)but-2-enamide]: the IC50 fell in the range of 100 to 1000 nM.

As to `COc1nc(N[C@@H]2CCN(C(=O)c3ccc(NC(=O)/C=C/CN4CC[C@@H](F)C4)cn3)C2)ncc1Cl` [Example 170, (E)-N-(6-((R)-3-((5-chloro-4-methoxypyrimidin-2-yl)amino)pyrrolidine-1-carbonyl)pyridin-3-yl)-4-((R)-3-fluoropyrrolidin-1-yl)but-2-enamide], the IC50 is 100 to 1000 nM.

As to `C#Cc1cnc(N[C@@H]2CCN(C(=O)c3ccc(NC(=O)C=C)cc3)C2)nc1OC` [Example 182, (R)—N-(4-(3-((5-ethynyl-4-methoxypyrimidin-2-yl)amino)pyrrolidine-1-carbonyl)phenyl)acrylamide], the IC50 was less than 100 nM.

As to `C=CC(=O)Nc1ccc(C(=O)N2CC[C@@H](Nc3ncc(C(F)(F)F)c(N(C)C)n3)C2)cc1` [Example 118, (R)—N-(4-(3-((4-(dimethylamino)-5-(trifluoromethyl)pyrimidin-2-yl)amino)pyrrolidine-1-carbonyl)phenyl)acrylamide], the IC50 was 10000 to 30000 nM.

Turning to `COc1nc(N[C@@H]2CCN(C(=O)c3ccc(NC(=O)/C=C/CN4CCC[C@H](F)C4)cn3)C2)ncc1Cl` [Example 175, (E)-N-(6-((R)-3-((5-chloro-4-methoxypyrimidin-2-yl)amino)pyrrolidine-1-carbonyl)pyridin-3-yl)-4-((S)-3-fluoropiperidin-1-yl)but-2-enamide], the IC50 is 100 to 1000 nM.

Turning to `COc1nc(N[C@@H]2CCN(C(=O)c3ccc(NC(=O)/C=C/CN4CCCC(F)(F)C4)cn3)C2)ncc1Cl` [Example 172, (R,E)-N-(6-(3-((5-chloro-4-methoxypyrimidin-2-yl)amino)pyrrolidine-1-carbonyl)pyridin-3-yl)-4-(3,3-difluoropiperidin-1-yl)but-2-enamide], the IC50 was 100 to 1000 nM.

Consider `C#CC(=O)Nc1ccc(C(=O)N2CC[C@@H](Nc3ncc(Cl)c(OC)n3)C2)cc1` [Example 124, (R)—N-(4-(3-((5-chloro-4-methoxypyrimidin-2-yl)amino)pyrrolidine-1-carbonyl)phenyl)propiolamide], for which the half-maximal inhibitory concentration (IC50) is less than 100 nM.

Take `COc1nc(N[C@@H]2CCN(C(=O)c3ccc(NC(=O)/C=C/CN4CC[C@H](F)C4)cc3)C2)ncc1Cl` [Example 169, (E)-N-(4-((R)-3-((5-chloro-4-methoxypyrimidin-2-yl)amino)pyrrolidine-1-carbonyl)phenyl)-4-((S)-3-fluoropyrrolidin-1-yl)but-2-enamide]: the IC50 is less than 100 nM.

`C=CC(=O)Nc1ccc(C(=O)N2CC[C@@H](Nc3ncc(Cl)cn3)C2)cc1OC1CCOC1` (stereo partly drawn) [Example 103, N-(4-((R)-3-((5-chloropyrimidin-2-yl)amino)pyrrolidine-1-carbonyl)-2-((tetrahydrofuran-3-yl)oxy)phenyl)acrylamide]: the IC50 lay in the range of 100 to 1000 nM.

Consider `N#CCC(=O)Nc1ccc(C(=O)N2CC[C@@H](Nc3ncc(Cl)cn3)C2)cc1` [Example 133, (R)—N-(4-(3-((5-chloropyrimidin-2-yl)amino)pyrrolidine-1-carbonyl)phenyl)-2-cyanoacetamide], for which the IC50 was in the range of 100 to 1000 nM.

`C=CC(=O)Nc1ccc(C(=O)N2CC[C@](C)(Nc3ncc(Cl)cn3)C2)cc1` [Example 108, (S)—N-(4-(3-((5-chloropyrimidin-2-yl)amino)-3-methylpyrrolidine-1-carbonyl)phenyl)acrylamide]: the IC50 was 30000 to 100000 nM.

As to `C=CC(=O)N(C)c1ccc(C(=O)N2CC[C@@H](Nc3ncc(C#N)cn3)C2)cc1` [Example 70, (R)—N-(4-(3-((5-cyanopyrimidin-2-yl)amino)pyrrolidine-1-carbonyl)phenyl)-N-methylacrylamide], the IC50 fell in the range of 100 to 1000 nM.

Turning to `COc1nc(N[C@@H]2CCN(C(=O)c3ccc(NC(=O)/C=C/CN(C)C)c(C)c3)C2)ncc1Cl` [Example 117, (R,E)-N-(4-(3-((5-chloro-4-methoxypyrimidin-2-yl)amino)pyrrolidine-1-carbonyl)-2-methylphenyl)-4-(dimethylamino)but-2-enamide], the IC50 was in the range of 100 to 1000 nM.

`C=CC(=O)Nc1ccc(C(=O)N2CC[C@@H](Nc3ncc(Cl)cn3)C2)cc1` [Example 87, (R)—N-(4-(3-((5-chloropyrimidin-2-yl)amino)pyrrolidine-1-carbonyl)phenyl)acrylamide]: the IC50 lay within 100 to 1000 nM.

For the molecule `O=C(Nc1ccc(C(=O)N2CC[C@@H](Nc3ncc(Cl)cn3)C2)cc1)C1CO1` (stereo partly drawn) [Example 141, N-(4-((R)-3-((5-chloropyrimidin-2-yl)amino)pyrrolidine-1-carbonyl)phenyl)oxirane-2-carboxamide], the IC50 lay in the range of 1000 to 10000 nM.

Regarding `C=CC(=O)Nc1ccc(C(=O)N2CC[C@@H](Nc3ncc(C4CC4)c(OC)n3)C2)cc1` [Example 99, (R)—N-(4-(3-((5-cyclopropyl-4-methoxypyrimidin-2-yl)amino)pyrrolidine-1-carbonyl)phenyl)acrylamide], the IC50 fell in the range of 100 to 1000 nM.

For `C=CC(=O)N(C)c1ccc(C(=O)N2CC[C@@H](Nc3ncc(Br)cn3)C2)cc1` [Example 104, (R)—N-(4-(3-((5-bromopyrimidin-2-yl)amino)pyrrolidine-1-carbonyl)phenyl)-N-methylacrylamide], the IC50 was less than 100 nM.

Turning to `C=CC(=O)Nc1nc(C(=O)N2CC[C@@H](Nc3ncc(Cl)cn3)C2)cs1` [Example 94, (R)—N-(4-(3-((5-chloropyrimidin-2-yl)amino)pyrrolidine-1-carbonyl)thiazol-2-yl)acrylamide], the IC50 lay within 100 to 1000 nM.

`C=CC(=O)Nc1nc(C(=O)N2CC[C@@H](Nc3ncc(C(F)(F)F)cn3)C2)cs1` [Example 100, (R)—N-(4-(3-((5-(trifluoromethyl)pyrimidin-2-yl)amino)pyrrolidine-1-carbonyl)thiazol-2-yl)acrylamide]: the IC50 is 100 to 1000 nM.

The values are drawn from US10894788B2, “Inhibitors of cyclin-dependent kinases” (Kinnate Biopharma Inc., priority 2018, dated 2021).
